Laboratory results taken from patent publication US20110294778A1, “HEPATITIS C INHIBITOR COMPOUNDS” (priority 2009, published 2011).

What was measured:
[1] = tested on: HCV genotype 1a (strain H77) subgenomic replicon with NS3 resistance mutation R155K in Huh-7 cells; test: HCV replicon RNA replication assay (NS3 protease variants), genotype 1a R155K; type: cell-based; conditions: Hepatitis C virus, Huh-7, 72 h, read-out: R155K 1a EC50 (nM)
[2] = tested on: HCV genotype 1b (Con-1) subgenomic replicon with NS3 resistance mutation D168V in Huh-7 cells; test: HCV replicon RNA replication assay (NS3 protease variants), genotype 1b D168V; type: cell-based; conditions: Hepatitis C virus, Huh-7, 72 h, read-out: D168V 1b EC50 (nM)

SMILES | EC50 [1] [nM] | EC50 [2] [nM]
CCn1ccc(C(=O)N[C@H]2CCCCC/C=C\[C@@H]3C[C@@]3(C(=O)NS(=O)(=O)C3CC3)NC(=O)[C@@H]3C[C@@H](Oc4cc(OC(C)C)nc5c(C)c(OC)ccc45)CN3C2=O)n1 [Compound 1024, (2R,6S,12Z,13aS,14aR,16aS)-N-(cyclopropylsulfonyl)-6-{[(1-ethyl-1H-pyrazol-3-yl)carbonyl]amino}-2-{[7-methoxy-8-methyl-2-(propan-2-yloxy)quinolin-4-yl]oxy}-5,16-dioxo-1,2,3,6,7,8,9,10,11,13a,14,15,16,16a-tetradecahydrocyclopropa[e]pyrrolo[1,2-a][1,4]diazacyclopentadecine-14a(5H)-carboxamide] | 3.9 | 0.31
CCOc1cc(O[C@@H]2C[C@H]3C(=O)N[C@]4(C(=O)NS(=O)(=O)C5CC5)C[C@H]4/C=C\CCCCC[C@H](NC(=O)c4ccn(C)n4)C(=O)N3C2)c2ccc(OC)c(Br)c2n1 [Compound 1017, (2R,6S,12Z,13aS,14aR,16aS)-2-[(8-bromo-2-ethoxy-7-methoxyquinolin-4-yl)oxy]-N-(cyclopropylsulfonyl)-6-{[(1-methyl-1H-pyrazol-3-yl)carbonyl]amino}-5,16-dioxo-1,2,3,6,7,8,9,10,11,13a,14,15,16,16a-tetradecahydrocyclopropa[e]pyrrolo[1,2-a][1,4]diazacyclopentadecine-14a(5H)-carboxamide] | 9.5 | 1.1
COc1ccc2c(O[C@@H]3C[C@H]4C(=O)N[C@]5(C(=O)NS(=O)(=O)C6(C)CC6)C[C@H]5/C=C\CCCCC[C@H](NC(=O)c5ccn(CC(F)(F)F)n5)C(=O)N4C3)cc(OC3CCC3)nc2c1C [Compound 1023, (2R,6S,12Z,13aS,14aR,16aS)-2-{[2-(cyclobutyloxy)-7-methoxy-8-methylquinolin-4-yl]oxy}-N-[(1-methylcyclopropyl)sulfonyl]-5,16-dioxo-6-({[1-(2,2,2-trifluoroethyl)-1H-pyrazol-3-yl]carbonyl}amino)-1,2,3,6,7,8,9,10,11,13a,14,15,16,16a-tetradecahydrocyclopropa[e]pyrrolo[1,2-a][1,4]diazacyclopentadecine-14a(5H)-carboxamide] | 8.2 | 0.25
COc1ccc2c(O[C@@H]3C[C@H]4C(=O)N[C@]5(C(=O)NS(=O)(=O)C6CC6)C[C@H]5/C=C\CCCCC[C@H](NC(=O)c5cc(C)n(C)n5)C(=O)N4C3)cc(OC(C)C)nc2c1C [Compound 1034, (2R,6S,12Z,13aS,14aR,16aS)-N-(cyclopropylsulfonyl)-6-{[(1,5-dimethyl-1H-pyrazol-3-yl)carbonyl]amino}-2-{[7-methoxy-8-methyl-2-(propan-2-yloxy)quinolin-4-yl]oxy}-5,16-dioxo-1,2,3,6,7,8,9,10,11,13a,14,15,16,16a-tetradecahydrocyclopropa[e]pyrrolo[1,2-a][1,4]diazacyclopentadecine-14a(5H)-carboxamide] | 7.7 | 0.67
COc1ccc2c(O[C@@H]3C[C@H]4C(=O)N[C@]5(C(=O)NS(=O)(=O)C6(C)CC6)C[C@H]5/C=C\CCCCC[C@H](NC(=O)N5CCC5)C(=O)N4C3)cc(OCC(F)(F)F)nc2c1C [Compound 2017, (2R,6S,12Z,13aS,14aR,16aS)-6-[(azetidin-1-ylcarbonyl)amino]-2-{[7-methoxy-8-methyl-2-(2,2,2-trifluoroethoxy)quinolin-4-yl]oxy}-N-[(1-methylcyclopropyl)sulfonyl]-5,16-dioxo-1,2,3,6,7,8,9,10,11,13a,14,15,16,16a-tetradecahydrocyclopropa[e]pyrrolo[1,2-a][1,4]diazacyclopentadecine-14a(5H)-carboxamide] | 6.3 | 1.1
CCOc1cc(O[C@@H]2C[C@H]3C(=O)N[C@]4(C(=O)NS(=O)(=O)C5(C)CC5)C[C@H]4/C=C\CCCCC[C@H](NC(=O)N(C)C)C(=O)N3C2)c2ccc(OC)c(C)c2n1 [Compound 2006, (2R,6S,12Z,13aS,14aR,16aS)-6-[(dimethylcarbamoyl)amino]-2-[(2-ethoxy-7-methoxy-8-methylquinolin-4-yl)oxy]-N-[(1-methylcyclopropyl)sulfonyl]-5,16-dioxo-1,2,3,6,7,8,9,10,11,13a,14,15,16,16a-tetradecahydrocyclopropa[e]pyrrolo[1,2-a][1,4]diazacyclopentadecine-14a(5H)-carboxamide] | 9.9 | 2.1
COc1ccc2c(O[C@@H]3C[C@H]4C(=O)N[C@]5(C(=O)NS(=O)(=O)C6(C)CC6)C[C@H]5/C=C\CCCCC[C@H](NC(=O)N5CC(C)(C)C5)C(=O)N4C3)cc(OC(C)C)nc2c1C [Compound 2021, (2R,6S,12Z,13aS,14aR,16aS)-6-{[(3,3-dimethylazetidin-1-yl)carbonyl]amino}-2-{[7-methoxy-8-methyl-2-(propan-2-yloxy)quinolin-4-yl]oxy}-N-[(1-methylcyclopropyl)sulfonyl]-5,16-dioxo-1,2,3,6,7,8,9,10,11,13a,14,15,16,16a-tetradecahydrocyclopropa[e]pyrrolo[1,2-a][1,4]diazacyclopentadecine-14a(5H)-carboxamide] | 3 | 1.6
Cc1ccc(C(=O)N[C@H]2CCCCC/C=C\[C@@H]3C[C@@]3(C(=O)NS(=O)(=O)C3(C)CC3)NC(=O)[C@@H]3C[C@@H](Oc4cc(OC(C)C)nc5c(C)c(O)ccc45)CN3C2=O)s1 [Compound 1033, (2R,6S,12Z,13aS,14aR,16aS)-2-{[7-hydroxy-8-methyl-2-(propan-2-yloxy)quinolin-4-yl]oxy}-N-[(1-methylcyclopropyl)sulfonyl]-6-{[(5-methylthiophen-2-yl)carbonyl]amino}-5,16-dioxo-1,2,3,6,7,8,9,10,11,13a,14,15,16,16a-tetradecahydrocyclopropa[e]pyrrolo[1,2-a][1,4]diazacyclopentadecine-14a(5H)-carboxamide] | 0.77 | 0.58
COc1ccc2c(O[C@@H]3C[C@H]4C(=O)N[C@]5(C(=O)NS(=O)(=O)C6(C)CC6)C[C@H]5/C=C\CCCCC[C@H](NC(=O)N(C)C)C(=O)N4C3)cc(OC(C)C)nc2c1C [Compound 2008, (2R,6S,12Z,13aS,14aR,16aS)-6-[(dimethylcarbamoyl)amino]-2-{[7-methoxy-8-methyl-2-(propan-2-yloxy)quinolin-4-yl]oxy}-N-[(1-methylcyclopropyl)sulfonyl]-5,16-dioxo-1,2,3,6,7,8,9,10,11,13a,14,15,16,16a-tetradecahydrocyclopropa[e]pyrrolo[1,2-a][1,4]diazacyclopentadecine-14a(5H)-carboxamide] | 6.7 | 1.5
CCOc1ccc2c(O[C@@H]3C[C@H]4C(=O)N[C@]5(C(=O)NS(=O)(=O)C6(C)CC6)C[C@H]5/C=C\CCCCC[C@H](NC(=O)c5ccn(C)n5)C(=O)N4C3)cc(OC(C)C)nc2c1Cl [Compound 1001, (2R,6S,12Z,13aS,14aR,16aS)-2-{[8-chloro-7-ethoxy-2-(propan-2-yloxy)quinolin-4-yl]oxy}-N-[(1-methylcyclopropyl)sulfonyl]-6-{[(1-methyl-1H-pyrazol-3-yl)carbonyl]amino}-5,16-dioxo-1,2,3,6,7,8,9,10,11,13a,14,15,16,16a-tetradecahydrocyclopropa[e]pyrrolo[1,2-a][1,4]diazacyclopentadecine-14a(5H)-carboxamide] | 2.6 | 0.33
COc1ccc2c(O[C@@H]3C[C@H]4C(=O)N[C@]5(C(=O)NS(=O)(=O)C6CC6)C[C@H]5/C=C\CCCCC[C@H](NC(=O)c5ccn(C)n5)C(=O)N4C3)cc(OCC(F)(F)F)nc2c1C [Compound 1015, (2R,6S,12Z,13aS,14aR,16aS)-N-(cyclopropylsulfonyl)-2-{[7-methoxy-8-methyl-2-(2,2,2-trifluoroethoxy)quinolin-4-yl]oxy}-6-{[(1-methyl-1H-pyrazol-3-yl)carbonyl]amino}-5,16-dioxo-1,2,3,6,7,8,9,10,11,13a,14,15,16,16a-tetradecahydrocyclopropa[e]pyrrolo[1,2-a][1,4]diazacyclopentadecine-14a(5H)-carboxamide] | 8.2 | 0.57
COc1ccc2c(O[C@@H]3C[C@H]4C(=O)N[C@]5(C(=O)NS(=O)(=O)C6(C)CC6)C[C@H]5/C=C\CCCCC[C@H](NC(=O)c5ccn(C)n5)C(=O)N4C3)cc(OC(C)C)nc2c1OC [Compound 1005, (2R,6S,12Z,13aS,14aR,16aS)-2-{[7,8-dimethoxy-2-(propan-2-yloxy)quinolin-4-yl]oxy}-N-[(1-methylcyclopropyl)sulfonyl]-6-{[(1-methyl-1H-pyrazol-3-yl)carbonyl]amino}-5,16-dioxo-1,2,3,6,7,8,9,10,11,13a,14,15,16,16a-tetradecahydrocyclopropa[e]pyrrolo[1,2-a][1,4]diazacyclopentadecine-14a(5H)-carboxamide] | 2.5 | 2
COc1ccc2c(O[C@@H]3C[C@H]4C(=O)N[C@]5(C(=O)NS(=O)(=O)C6(C)CC6)C[C@H]5/C=C\CCCCC[C@H](NC(=O)c5ccn(CC(C)C)n5)C(=O)N4C3)cc(OC(C)C)nc2c1C [Compound 1020, (2R,6S,12Z,13aS,14aR,16aS)-2-{[7-methoxy-8-methyl-2-(propan-2-yloxy)quinolin-4-yl]oxy}-N-[(1-methylcyclopropyl)sulfonyl]-6-({[1-(2-methylpropyl)-1H-pyrazol-3-yl]carbonyl}amino)-5,16-dioxo-1,2,3,6,7,8,9,10,11,13a,14,15,16,16a-tetradecahydrocyclopropa[e]pyrrolo[1,2-a][1,4]diazacyclopentadecine-14a(5H)-carboxamide] | 3.1 | 0.23
Cc1c(O)ccc2c(O[C@@H]3C[C@H]4C(=O)N[C@]5(C(=O)NS(=O)(=O)C6CC6)C[C@H]5/C=C\CCCCC[C@H](NC(=O)c5ccn(C)n5)C(=O)N4C3)cc(OC(C)C)nc12 [Compound 1037, (2R,6S,12Z,13aS,14aR,16aS)-N-(cyclopropylsulfonyl)-2-{[7-hydroxy-8-methyl-2-(propan-2-yloxy)quinolin-4-yl]oxy}-6-{[(1-methyl-1H-pyrazol-3-yl)carbonyl]amino}-5,16-dioxo-1,2,3,6,7,8,9,10,11,13a,14,15,16,16a-tetradecahydrocyclopropa[e]pyrrolo[1,2-a][1,4]diazacyclopentadecine-14a(5H)-carboxamide] | 4.3 | 3.7
